Results on three sequences are retold here after publication PMC8541546, “Identification of HLA-A2-Restricted Mutant Epitopes from Neoantigens of Esophageal Squamous Cell Carcinoma” (Vaccines, 2021).

Series [1] deals with peptide-pulsed T2A2 cells. The series is described as follows: Cytotoxicity assay of peptide-induced T cells from donor PBMCs. The following applies: donors B–F; E/T 12.5:1, 25:1, 50:1; T2A2 loaded with 50 μg/mL peptide. The class given is cell-based, human. How it is done:
(§1) DCs involve and play an important role in initiating CD8^+ T cell response. Consequently, ten HLA-A2^+ healthy donors’ PBMCs were isolated, autologous DCs were generated, and CTLs were induced according to the procedure described previously. In brief, PBMCs were seeded at a density of 5 × 10^6 cells/well in a 6-well plate, and after 3 h, the non-adherent cells were removed and cryopreserved for future incubation with mature autologous DCs. Differentiation of the adherent cells into dendritic cells was induced by GM-CSF (100 ng/mL, #300-03, PeproTech, Rocky Hill, NJ, USA) and IL-4 (100 ng/mL; #200-04, PeproTech, USA), with replenishment every 2 days. On day 5, maturation of DCs was induced using 100 ng/mL LPS (#L4516, Sigma-Aldrich, St. Louis, MO, USA), and maturation was checked on day 8 by flow cytometry (BD FACSCelesta™) using markers for anti-human HLA-DR, anti-human CD80, and anti-human CD86. Then, mature DCs (1 × 10^5) were pulsed with each 10 μg /mL individual peptide or no peptides (control) for 2 h at 37 °C. Next, peptide-pulsed DCs were used to prime the previously cryopreserved autologous peripheral blood lymphocytes (PBLs) at a DC/PBL ratio of 1:10 using complete RPMI-1640 media supplemented with 100 IU/mL rhIL-2 (#200-02, PeproTech, USA) and 10 ng/mL rhIL-7 (#200-07, PeproTech, USA). Half of the feeding medium was replenished every 2 days. After 7 days, PBLs were restimulated with freshly pulsed autologous DCs every 7 days.
(§2) The cytotoxicity of peptide-specific T cells stimulated by mutant peptides was tested by using Cell Trace Far Red (Thermo Scientific, USA). Transfected cells were suspended in PBS (1 × 10^6 cells/mL) and labelled with Cell Trace Far Red as follows: Control target cells and test target cells were marked by 50 μM and 1 mM Cell Trace Far Red, respectively, at 37 °C for 20 min, protected from light. After incubation, target cells were washed with complete media at 37 °C for 5 min. […] Subsequently, test target cells were mixed with control target cells in a tube, washed once, and analyzed by flow cytometry. Specific lysis (%) = (numbers of control target cells—numbers of test target cells)/numbers of control target cells × 100% [28, 29], where, for tumor cells, the control target cells refer to KYSE140-WT cells marked with 50 μM Cell Trace Far Red, and the test target cell refers to KYSE140-WT or KYSE140-MUT cells marked with 1 mM Cell Trace Far Red, respectively (peptide-specific T cells generated from donors G–K’s PBMCs in vitro or generated from spleen lymphocytes of HLA-A2.1/K^b Tg mice in vivo). Additionally, for T2A2 target cells, T2A2 cells unpulsed and marked with 50 μM Cell Trace Far Red were used as the control target cells, while T2A2 cells loaded with MUT peptides or the corresponding WT peptides (50 μg/mL) or T2A2 cells only were marked with 1 mM Cell Trace Far Red and were used as test target cells (peptide-specific T cells stimulated from donors B–F’s PBMCs).

Series [2] concerns KYSE140-MUT cells. As to the kind of experiment: Cytotoxicity assay (Cell Trace Far Red) of CTLs from immunized Tg mice. The class given is in vivo, HLA-A2.1/K^b Tg mice. The following applies: KYSE140-MUT group, E/T of 80:1, 4 h. The method, then:
(§3) To investigate whether neoepitopes could induce a peptide-specific T cell response in vivo, HLA-A2.1/K^b Tg mice were used and immunized according to the procedure de-scribed previously. In brief, mutant peptides or WH-mutant peptides (100 μg per mouse) with CpG-ODN 1826 (30 μg per mouse) were injected s.c. in the back of HLA-A2.1/K^b Tg mice (five mice per group, randomly grouped) once a week for three weeks. The normal saline (NS) group was immunized s.c. only with CpG ODN 1826 (30 μg/mouse) once a week for three weeks. Five days after the last injection, spleen lymphocytes were isolated and cultured at the concentration of 5 × 10^6 cells/mL in RPMI 1640 medium. These cells were induced by the same mutant peptides (10 μg/mL) that were used for in vivo stimulation and mIL-2 (30 U/mL) for a week. Intracellular cytokine staining assay (ICS) and cytotoxic assay (E: T ratios = 20:1, 40:1, 80:1) were performed after a week induced in vitro [22].
as §2, with “Additionally, for T2A2 target cells, T2A2 cells unpulsed and marked with 50 μM Cell Trace Far Red were used as the control target cells, while T2A2 cells loaded with MUT peptides or the corresponding WT peptides (50 μg/mL) or T2A2 cells only were marked with 1 mM Cell Trace Far Red and were used as test target cells (peptide-specific T cells stimulated from donors B–F’s PBMCs).” left out

Series [3] deals with KYSE140-MUT cells. As to the kind of experiment: Intracellular cytokine assay with minigene-transfected tumor cells in vitro. Format: cell-based, human. The following applies: donors G–K; KYSE140/KYSE150 transfected with WT or MUT minigene; IFN-γ and granzyme B. How it is done:
as §1
Then two vectors were transduced into KYSE140 (HLA-A2^+) and KYSE150 (HLA-A2^−) to get KYSE140-MUT (HLA-A2^+, MUT peptide^+), KYSE140-WT (HLA-A2^+, MUT peptide^−), KYSE150-MUT (HLA-A2^−, MUT peptide^+) and KYSE150-WT (HLA-A2^−, MUT peptide^−) cells (see Supplementary Materials for details).
As for the transfected cells serving as target cells in the in vitro investigation, peptide-specific T cells (from HLA-A2^+ healthy donors G–K) induced by MUT peptides were co-cultured with tumor cell lines transfected with WT or MUT minigenes in IMDM medium in the presence of BFA for 5 h. […]

Series [4] relates to KYSE140-MUT cells. The series is described as follows: Intracellular cytokine staining (IFN-γ) of CTLs from immunized Tg mice. The class given is in vivo, HLA-A2.1/K^b Tg mice. To be noted: 100 μg/mouse s.c. with CpG ODN 1826 once a week for three weeks; spleen lymphocytes re-stimulated with MUT peptide; KYSE140-MUT target cells; n = 5 per group. How it is done: as §3
To test the MUT peptides stimulation of CTL response in vivo, peptide-specific T cells induced from Tg mice were co-cultured with tumor cell lines transfected with WT or MUT minigenes, as described in the in vitro assay. […] Intracellular cytokines were marked by anti-mouse IFN-γ or anti-mouse granzyme B, respectively, and analyzed by flow cytometry (BD FACSCelesta™, USA).

For the sequence QVTDFLAPL [PCLO-E4090Q], the “lysis cytotoxicity of MUT peptide-induced T cells on T2A2 cells” value (“lysis cytotoxicity” below) in series [1] is listed as “could efficiently lyse corresponding MUT peptide-pulsing T2A2 cells”. Further, in series [2], the “lysis rate (specific lysis)” value is 76.7%. Further, the “processing and presentation of MUT peptide by transfected cells, recognized by CTLs” value (“processing and presentation” below) in series [3] was “endogenously processed and presented by transfected cells”.

In the case of ILWRQDINL [NFE2L2-D13N], in series [1], the “lysis cytotoxicity” value is given as “could efficiently lyse corresponding MUT peptide-pulsing T2A2 cells”. Also, the “lysis rate (specific lysis)” value in series [2] was determined as 69.5%. The “IFN-γ secretion of CTLs (IFN-γ+ CD8+ T cells)” value in series [4] is on record as 1.5%. Also, the “processing and presentation” value in series [3] is “endogenously processed and presented by transfected cells”.

On to LLGPNSFEV [TP53-R267P], for which the “lysis cytotoxicity” value in series [1] is listed as “could efficiently lyse corresponding MUT peptide-pulsing T2A2 cells”. In addition, in series [2], the “lysis rate (specific lysis)” value is listed as 71.5%. For the same sequence, the “IFN-γ secretion of CTLs (IFN-γ+ CD8+ T cells)” value in series [4] was found to be 1.1%. Also, the “processing and presentation” value in series [3] is “endogenously processed and presented by transfected cells”.
